Among the test systems are MOLT-4; RXF 393; OVCAR-3; HL-60; A498; HCC 2998; CCRF-CEM; SF-268; SK-MEL-28; SK-OV-3; NCI-H460; NCI-H226; LOX IMVI; KM12; SNB-75; NCI/ADR-RES; HT-29; HOP-62; Malme-3M; NCI-H522.
What all share (experiment): DTP human tumour cell line panel, 48 h

The results in this text go back to ChEMBL document CHEMBL1201862, “PubChem BioAssay data set” (2004).

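Step 1: Grow cells in 96-well plates. Step 2: Expose to compound for 48 hours at 5 concentrations. Step 3: Interpolate endpoints linearly; if unreached, use highest concentration. GI50 marks 50% less growth.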 Activity calls are given as the source filed them. Rule as the data show it: active = GI50 up to about 1.1 µM and inactive = higher.

Broadly, the GI50 is the concentration at which growth is held to half of that of the control.

Turning to `Cc1ccc(C(=O)N/N=C(\N=N\c2cccc(C)c2)c2ccc(N(CCC#N)CCC#N)cc2C)cc1`, the GI50 with MOLT-4 was 38.9 µM (inactive); in the assay on RXF 393, 89.1 µM (inactive); in the assay on OVCAR-3, 78.9 µM (inactive); in the assay with HL-60, > 100 µM (inactive); in the assay with A498 it was 73.3 µM (inactive); with HCC 2998, > 100 µM (inactive). For the same compound, the GI50 was 59.8 µM (inactive) in the assay with CCRF-CEM; 59.6 µM (inactive) in the assay with SF-268; 13.1 µM (inactive) with SK-MEL-28; > 100 µM (inactive) with SK-OV-3; 52.7 µM (inactive) in the assay with NCI-H460; 55.2 µM (inactive) in the assay on NCI-H226. Also, the GI50 in the assay on LOX IMVI is 88.9 µM (inactive); in the assay on KM12 it was 31.8 µM (inactive); with SNB-75, 47.5 µM (inactive); in the assay with NCI/ADR-RES, > 100 µM (inactive); in the assay with HT-29, 34.4 µM (inactive); in the assay on HOP-62 it was > 100 µM (inactive).
Take `COc1ccc(C(=O)Cc2cc(OC)ccc2OC)cc1`: the GI50 with Malme-3M is > 100 µM (inactive); in the assay on MOLT-4, > 100 µM (inactive); in the assay on RXF 393 it was 58.9 µM (inactive); in the assay with OVCAR-3 it was > 100 µM (inactive); in the assay on HL-60, > 100 µM (inactive); with A498, 39.2 µM (inactive). The GI50 is > 100 µM (inactive) in the assay with HCC 2998; > 100 µM (inactive) in the assay on CCRF-CEM; 61.4 µM (inactive) in the assay with SF-268; > 100 µM (inactive) with SK-OV-3; 43.3 µM (inactive) in the assay on NCI-H522; > 100 µM (inactive) with NCI-H460. Moreover, the GI50 is > 100 µM (inactive) in the assay with NCI-H226; > 100 µM (inactive) with LOX IMVI; 29 µM (inactive) with SNB-75; > 100 µM (inactive) with HT-29; 66.1 µM (inactive) in the assay on HOP-62.
For the compound `CCOC(=O)C1=NN(c2ccccc2)C2=CC(C)=NN(C)C(=S)N21`, the GI50 in the assay with MOLT-4, in the assay on RXF 393, with OVCAR-3, in the assay with HL-60, in the assay with HCC 2998 and in the assay with CCRF-CEM was > 100 µM (inactive) throughout. For the same compound, the GI50 was > 100 µM (inactive) in the assay with SF-268; > 100 µM (inactive) with SK-MEL-28; > 100 µM (inactive) with SK-OV-3; > 100 µM (inactive) with NCI-H522; 48.5 µM (inactive) in the assay on NCI-H460; > 100 µM (inactive) in the assay with LOX IMVI. For the same compound, the GI50 with KM12, with SNB-75, in the assay with NCI/ADR-RES and in the assay on HT-29 was > 100 µM (inactive) throughout.
In the case of `Cc1ccc(C(=O)Nc2ncn(C3CC(O)C(CO)O3)c(=O)n2)cc1` (stereo unspecified), the GI50 with Malme-3M is > 100 µM (inactive); in the assay on MOLT-4 it was > 29.6 µM (inactive); in the assay with RXF 393, > 100 µM (inactive); with OVCAR-3, > 33.3 µM (inactive); in the assay on A498, > 100 µM (inactive); in the assay on HCC 2998 it was > 100 µM (inactive). The GI50 in the assay on CCRF-CEM, with SF-268, in the assay on SK-MEL-28, in the assay with SK-OV-3, with NCI-H522 and with NCI-H460 was > 100 µM (inactive) each time. For the same compound, the GI50 in the assay on NCI-H226 is > 100 µM (inactive); in the assay with LOX IMVI it was > 100 µM (inactive); in the assay with KM12 it was > 100 µM (inactive); with SNB-75, > 52.6 µM (inactive); in the assay on NCI/ADR-RES it was > 100 µM (inactive); with HT-29, > 100 µM (inactive). The GI50 in the assay with HOP-62 is > 100 µM (inactive).
In the case of `O=C(O)C12CC3CC(C1)C2C=C3P(=O)(O)O` (stereo unspecified), the GI50 with Malme-3M, in the assay with MOLT-4, in the assay with RXF 393, in the assay on OVCAR-3, with HL-60 and with HCC 2998 was > 100 µM (inactive) throughout. Besides, the GI50 with CCRF-CEM, with SF-268, with SK-MEL-28, in the assay with SK-OV-3, in the assay on NCI-H522 and in the assay on NCI-H460 was > 100 µM (inactive) each time. The GI50 with NCI-H226, in the assay on LOX IMVI, in the assay on KM12, with SNB-75, in the assay with HT-29 and in the assay on HOP-62 was > 100 µM (inactive) each time.
`CN(C)CCNC(=O)c1cccc2nc(-c3ccccc3)oc12`: the GI50 in the assay on Malme-3M is 23.9 µM (inactive); in the assay with MOLT-4 it was 10.9 µM (inactive); with RXF 393, 32.2 µM (inactive); with OVCAR-3, 41.9 µM (inactive); with HL-60 it was 8.18 µM (inactive); in the assay on A498 it was 27.7 µM (inactive). Further, the GI50 was 54.5 µM (inactive) with HCC 2998; 45.6 µM (inactive) in the assay on CCRF-CEM; > 64.6 µM (inactive) with SF-268; 60.1 µM (inactive) with SK-MEL-28; 34.4 µM (inactive) in the assay with SK-OV-3; 30.4 µM (inactive) with NCI-H460. The GI50 in the assay on NCI-H226 was 29.1 µM (inactive); in the assay on LOX IMVI it was 26.5 µM (inactive); with KM12 it was 53.5 µM (inactive); in the assay on SNB-75, 13.5 µM (inactive); in the assay with NCI/ADR-RES, 42.9 µM (inactive); in the assay with HT-29 it was 31 µM (inactive). For the same compound, the GI50 in the assay on HOP-62 is > 66.7 µM (inactive).
Consider `Cc1cc(O)nc(NN2C(Cl)C(=O)C2c2c(O)ccc3ccccc23)n1` (stereo unspecified), for which the GI50 with MOLT-4 was 16.3 µM (inactive); with RXF 393, 13.2 µM (inactive); in the assay with OVCAR-3, 13.2 µM (inactive); in the assay with HL-60 it was 14.1 µM (inactive); with HCC 2998, 15 µM (inactive); in the assay with CCRF-CEM it was 6.76 µM (inactive). Also, the GI50 was 23.1 µM (inactive) in the assay with SF-268; 19.5 µM (inactive) with SK-MEL-28; 15 µM (inactive) in the assay with NCI-H460; 13 µM (inactive) in the assay on NCI-H226; 13.7 µM (inactive) with LOX IMVI; 23 µM (inactive) in the assay on KM12. For the same compound, the figures for the GI50 in the assay on SNB-75, in the assay with HT-29 and in the assay with HOP-62 were 8.75 µM (inactive), 25 µM (inactive) and 15.1 µM (inactive), respectively.
Take `CC(=O)OC1CC2(O)C(CCC3(C)C(c4ccc(=O)oc4)CCC32O)C2(C)CCC(O)C=C12` (stereo unspecified): the GI50 in the assay on MOLT-4 was 0.00182 µM (active); in the assay on RXF 393, 0.0375 µM (active); in the assay with OVCAR-3, 0.00469 µM (active); in the assay with HL-60 it was 0.00455 µM (active); in the assay on A498 it was 0.0428 µM (active); in the assay with HCC 2998, 0.0644 µM (active). The GI50 with SF-268 is 0.0375 µM (active); in the assay with SK-MEL-28 it was 0.0375 µM (active); with SK-OV-3 it was 0.0336 µM (active); in the assay on NCI-H522 it was 0.00174 µM (active); in the assay on NCI-H460, 0.00454 µM (active); with NCI-H226, 0.048 µM (active). In addition, the GI50 was 0.0191 µM (active) with LOX IMVI; 0.0317 µM (active) with SNB-75; 0.0125 µM (active) with NCI/ADR-RES; 0.0239 µM (active) in the assay with HT-29; 0.0375 µM (active) with HOP-62.
For `O=C(/N=N/c1cc(Cl)ccc1Cl)NNc1cc(Cl)ccc1Cl`, the GI50 with Malme-3M was 23.1 µM (inactive); with MOLT-4 it was > 10 µM (inactive); with RXF 393, 11.1 µM (inactive); in the assay on OVCAR-3, 16.8 µM (inactive); in the assay on HL-60, 4.41 µM (inactive); with A498, 26.9 µM (inactive). The GI50 in the assay on HCC 2998 is 25.9 µM (inactive); in the assay with CCRF-CEM, 13.6 µM (inactive); with SK-MEL-28, 23.5 µM (inactive); in the assay with SK-OV-3, 30.3 µM (inactive); in the assay with NCI-H522 it was 13.2 µM (inactive); in the assay with NCI-H460, 17.3 µM (inactive). Besides, the GI50 in the assay on NCI-H226 was > 10 µM (inactive); in the assay with KM12, 16.7 µM (inactive); in the assay on SNB-75, 28.4 µM (inactive); with NCI/ADR-RES, 22 µM (inactive); with HT-29, 17.5 µM (inactive); with HOP-62, 17.3 µM (inactive).
As to `CC(C(=O)OCc1ccccc1)N(Cc1ccccc1)Cc1ccccc1` (stereo unspecified), the GI50 is 51.2 µM (inactive) in the assay on Malme-3M; 33 µM (inactive) in the assay with MOLT-4; 23.1 µM (inactive) in the assay on RXF 393; > 100 µM (inactive) in the assay on OVCAR-3; 21 µM (inactive) in the assay on HL-60; > 100 µM (inactive) with A498. Further, the GI50 was > 100 µM (inactive) with HCC 2998; 53.5 µM (inactive) with CCRF-CEM; > 100 µM (inactive) in the assay on SF-268; > 100 µM (inactive) in the assay with SK-MEL-28; > 100 µM (inactive) in the assay with SK-OV-3; 29.2 µM (inactive) with NCI-H522. For the same compound, the GI50 with NCI-H460 was > 100 µM (inactive); with KM12, 58.7 µM (inactive); with SNB-75, 42.7 µM (inactive); in the assay with HT-29, 46.8 µM (inactive); in the assay on HOP-62, > 100 µM (inactive).
With `CC(=O)NNc1nc(C)c(C(=O)NNC(=O)C(=O)Nc2c(C)cccc2C(C)(C)C)s1`, the GI50 in the assay with MOLT-4 was 41.1 µM (inactive); in the assay with RXF 393, > 100 µM (inactive); with HL-60 it was 33.3 µM (inactive); in the assay with A498, > 100 µM (inactive); in the assay with HCC 2998, 25.6 µM (inactive); with CCRF-CEM, 16.2 µM (inactive). The GI50 in the assay with SF-268 is > 100 µM (inactive); in the assay on SK-MEL-28, > 100 µM (inactive); with SK-OV-3, > 100 µM (inactive); with NCI-H522 it was 20.9 µM (inactive); in the assay on NCI-H460, 52.2 µM (inactive); in the assay on NCI-H226 it was > 100 µM (inactive). Moreover, the GI50 in the assay with LOX IMVI was 57.8 µM (inactive); in the assay with KM12, > 100 µM (inactive); in the assay with SNB-75 it was > 100 µM (inactive); in the assay on HT-29, 64 µM (inactive); with HOP-62, > 100 µM (inactive).
